Reference: BindingDB's records for doi:10.1016/s0960-894x(01)00497-8 (Universidad De Sevilla, 2001)
Counter-ions that a name gives are not always drawn.

Tests used:
[1] = Inhibitory concentration against alpha-L-Fucosidase of human placenta
[2] = biological target: alpha-L-fucosidase (Bacillus sp. K40T); experiment: Inhibitory activity against alpha-L-fucosidase of bacillus species (K40T) expressed as Ki
[3] = In vitro inhibition of alpha-L-fucosidase isolated from bovine kidney.
[4] = Inhibitory activity against alpha-L-fucosidase of bovine epididymis expressed as Ki
[5] = Inhibitory concentration against alpha-L-Fucosidase of bovine epididymis
[6] = Inhibitory activity against alpha-L-Fucosidase of bovine epididymis expressed as Ki

SMILES | Ki [1] | further results
CC1C(N)C(O)[C@H](O)C1O (stereo partly drawn) [(R)-4-Amino-5-methyl-cyclopentane-1,2,3-triol] | 15 µM | 
C=CCOC1OC(CO)C(O)C(O)[C@H]1OC1SC(C)C(O)[C@@H](O)C1O (stereo partly drawn) [(R)-2-((R)-2-Allyloxy-4,5-dihydroxy-6-hydroxymethyl-tetrahydro-pyran-3-yloxy)-6-methyl-tetrahydro-thiopyran-3,4,5-triol] |  | Ki [2]: 0.21 µM; Ki [3]: 30 µM
CC1CN[C@@H](N)[C@H](O)C1O (stereo partly drawn) [(2R,3S)-2-Amino-5-methyl-piperidine-3,4-diol] | 0.016 µM | 
CC1NC(S(=O)(=O)O)C(O)C1O (stereo unspecified) [3,4-Dihydroxy-5-methyl-pyrrolidine-2-sulfonic acid] | 0.01 µM | 
OC1CN(Cc2ccccc2)C[C@@H](O)C(O)C1O (stereo partly drawn) [(R)-1-Benzyl-azepane-3,4,5,6-tetraol] |  | Ki [4]: 23.4 µM
CC1SC(Sc2ccc([N+](=O)[O-])cc2)C(O)[C@H](O)C1O (stereo partly drawn) [(R)-2-Methyl-6-(4-nitro-phenylsulfanyl)-tetrahydro-thiopyran-3,4,5-triol] | 3.3 µM | 
COC(=O)c1cc(C2NCC(O)C2O)oc1C (stereo unspecified) [5-(3,4-Dihydroxy-pyrrolidin-2-yl)-2-methyl-furan-3-carboxylic acid methyl ester] |  | IC50 [5]: 100 µM; Ki [6]: 6.5 µM
CC(=O)NCC1NCC(O)[C@@H](O)[C@@H]1O (stereo partly drawn) [N-((3R,4R)-3,4,5-Trihydroxy-piperidin-2-ylmethyl)-acetamide] | 4 µM | 
CCCCNC1N[C@@H](CO)C(O)[C@@H](O)[C@@H](CO)N1 (stereo partly drawn) [(6S,7R)-2-Butylamino-4,7-bis-hydroxymethyl-[1,3]diazepane-5,6-diol; trifluoroacetate] | 2.8 µM | 
C[C@@H]1N[C@@H](CO)[C@H](O)[C@@H]1O | 1.4 µM | 

Second part, led by results:

Ki [1] | SMILES | further results
2 µM | CC1NCC(O)C1O (stereo unspecified) [2-Methyl-pyrrolidine-3,4-diol] | 
9 µM | C[C@H]1N[C@H](CO)[C@H](O)[C@@H]1O | 
0.82 µM | CC1N=C(NN)[C@@H](O)[C@H](O)C1O (stereo partly drawn) [(4R,5R)-6-Hydrazino-2-methyl-2,3,4,5-tetrahydro-pyridine-3,4,5-triol] | 
0.68 µM | CC1C(NCc2ccccc2)C(O)[C@H](O)C1O (stereo partly drawn) [(R)-4-Benzylamino-5-methyl-cyclopentane-1,2,3-triol] | 
